The record followed here is ChEMBL document CHEMBL1147642, “Elimination of antibacterial activities of non-peptide luteinizing hormone-releasing hormone (LHRH) antagonists derived from erythromycin A” (Bioorg Med Chem Lett, 2004).

Converted amounts (≈) assume the structure as drawn. Some results are limits rather than exact numbers.

One test has as its system Streptococcus equinus. Put plainly: Minimum inhibitory activity against Streptococcus bovis A-5169. The test is classed as functional.
For the next test, the system named is Staphylococcus aureus. The test can be described thus: Minimum inhibitory activity against Staphylococcus aureus ATCC 6538P. Type of test: functional.
The subject of the next test is Streptococcus pyogenes. The test can be described thus: Minimum inhibitory activity against Streptococcus pyogenes EES61. The test is classed as functional.
A further test concerns Streptococcus agalactiae. The test can be described thus: Minimum inhibitory activity against Streptococcus agalactiae CMX 508. The test is classed as functional.
The subject of a further test is Micrococcus luteus. The test can be described thus: Minimum inhibitory activity against Micrococcus luteus ATCC 9341. Type of test: functional.
Test [1] has as its target T1, Gonadotropin-releasing hormone receptor (Homo sapiens, UniProt P30968).
T1 sequence (P30968 whole entry): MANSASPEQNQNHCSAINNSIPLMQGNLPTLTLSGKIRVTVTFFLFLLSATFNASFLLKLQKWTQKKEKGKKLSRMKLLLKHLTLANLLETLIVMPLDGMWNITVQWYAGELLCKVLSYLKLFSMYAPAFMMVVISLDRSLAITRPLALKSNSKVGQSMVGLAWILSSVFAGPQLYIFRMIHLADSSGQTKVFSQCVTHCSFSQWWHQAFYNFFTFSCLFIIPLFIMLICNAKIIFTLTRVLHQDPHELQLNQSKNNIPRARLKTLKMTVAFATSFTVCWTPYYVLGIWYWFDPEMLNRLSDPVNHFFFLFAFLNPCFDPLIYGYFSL
Put plainly: Binding affinity against human luteinizing releasing hormone receptor cloned in CHO cells. The test is classed as cell-based.

Test [2] has as its system Staphylococcus epidermidis. Put plainly: Minimum inhibitory activity against Staphylococcus epidermidis 3519. The test is classed as functional.
The next test has as its system Enterococcus faecium. Put plainly: Minimum inhibitory activity against Enterococcus faecium ATCC 8043. Type of test: functional.

As usually defined, the MIC is the lowest concentration found to suppress growth. As usually defined, the Ki is a dissociation constant, usually derived from enzyme kinetics or from competition with a known ligand. Low readings indicate higher affinity, high ones lower affinity. With `CC[C@H]1OC(=O)[C@H](C)[C@@H](OC2C[C@@](C)(OC)[C@@H](O)[C@H](C)O2)[C@H](C)[C@@H](OC2O[C@H](C)C[C@H](N(CC3CC3)CC3CC3)[C@H]2O)[C@@](C)(OC)C[C@@H](C)C(=O)[C@H](C)[C@H]2N(CCc3ccc(F)c(Cl)c3)C(=O)O[C@]12C` (some centres undefined), the MIC against Streptococcus equinus was 25 µg/mL (≈ 24.8 µM); with Staphylococcus aureus, above 100 µg/mL; against Streptococcus pyogenes it was 25 µg/mL (≈ 24.8 µM); in the test on Streptococcus agalactiae, 50 µg/mL (≈ 49.5 µM); against Micrococcus luteus, 25 µg/mL (≈ 24.8 µM); in test [2], above 100 µg/mL. The same compound registered a minimum inhibitory concentration (MIC) against Enterococcus faecium of 25 µg/mL (≈ 24.8 µM). In addition, in test [1], the Ki is 0.851 nM.

With `CC[C@H]1OC(=O)[C@H](C)[C@@H](OC(=O)N2C(=O)OC[C@@H]2C)[C@H](C)[C@@H](O[C@@H]2O[C@H](C)C[C@H](N(C)CC3CC3)[C@H]2O)[C@@](C)(OC)C[C@@H](C)C(=O)[C@H](C)[C@H]2N(CCc3ccc(Cl)c(Cl)c3)C(=O)O[C@]12C`, the MIC in the test on Streptococcus equinus is 0.78 µg/mL (≈ 0.817 µM); against Staphylococcus aureus it was above 100 µg/mL; against Streptococcus pyogenes it was 0.78 µg/mL (≈ 0.817 µM); in the test on Streptococcus agalactiae, 0.78 µg/mL (≈ 0.817 µM); with Micrococcus luteus it was 3.1 µg/mL (≈ 3.25 µM); in test [2] it was above 100 µg/mL. For the same compound, the MIC in the test on Enterococcus faecium came out at 3.1 µg/mL (≈ 3.25 µM).

As to `CC[C@H]1OC(=O)[C@H](C)[C@@H](OC2C[C@@](C)(OC)[C@@H](O)[C@H](C)O2)[C@H](C)[C@@H](OC2O[C@H](C)C[C@H](NC)[C@H]2O)[C@@](C)(OC)C[C@@H](C)C(=O)[C@H](C)[C@H]2N(CCc3ccc(Cl)cc3)C(=O)O[C@]12C` (some centres undefined), the minimum inhibitory concentration (MIC) against Streptococcus equinus was determined as 0.2 µg/mL (≈ 0.223 µM); against Staphylococcus aureus, 1.56 µg/mL (≈ 1.74 µM); with Streptococcus pyogenes, 0.1 µg/mL (≈ 0.111 µM); in the test with Streptococcus agalactiae it was 0.05 µg/mL (≈ 0.0557 µM); against Micrococcus luteus, 0.2 µg/mL (≈ 0.223 µM); in test [2], 1.56 µg/mL (≈ 1.74 µM). The MIC in the test on Enterococcus faecium is 0.39 µg/mL (≈ 0.435 µM). The compound also gave a Ki in test [1] of 79.4 nM.

Turning to `CCC(C)N(CC1CC1)[C@H]1C[C@@H](C)OC(O[C@@H]2[C@@H](C)[C@H](OC3C[C@@](C)(OC)[C@@H](O)[C@H](C)O3)[C@@H](C)C(=O)O[C@H](CC)[C@@]3(C)OC(=O)N(CCc4ccc(Cl)cc4)[C@@H]3[C@@H](C)C(=O)[C@H](C)C[C@]2(C)OC)[C@@H]1O` (some centres undefined), the MIC (in the test on Streptococcus equinus; against Staphylococcus aureus; in the test with Streptococcus pyogenes; against Streptococcus agalactiae; in the test on Micrococcus luteus; in test [2]) was above 100 µg/mL in each case. Also, in the test on Enterococcus faecium, the MIC is above 100 µg/mL. The compound also showed a Ki in test [1] of 27.5 nM.

With `CC[C@H]1OC(=O)[C@H](C)[C@@H](OC(=O)N2C(=O)OC[C@@H]2C)[C@H](C)[C@@H](OC2O[C@H](C)C[C@H](N(C)CC3CC3)[C@H]2O)[C@@](C)(OC)C[C@@H](C)C(=O)[C@H](C)[C@H]2N(CCc3ccc(Cl)cc3)C(=O)O[C@]12C` (some centres undefined), the MIC was 0.78 µg/mL (≈ 0.847 µM) with Streptococcus equinus; 100 µg/mL (≈ 109 µM) with Staphylococcus aureus; 0.78 µg/mL (≈ 0.847 µM) against Streptococcus pyogenes; 1.56 µg/mL (≈ 1.69 µM) in the test on Streptococcus agalactiae; 12.5 µg/mL (≈ 13.6 µM) in the test on Micrococcus luteus; above 100 µg/mL in test [2]. The compound also came in with an MIC against Enterococcus faecium of 3.1 µg/mL (≈ 3.37 µM). The compound also gave a Ki in test [1] of 18.6 nM.

Regarding `CC[C@H]1OC(=O)[C@H](C)[C@@H](O)[C@H](C)[C@@H](OC2O[C@H](C)C[C@H](N(C)C)[C@H]2O)[C@@](C)(OC)C[C@@H](C)C(=O)[C@H](C)[C@H]2N(CCc3ccc(Cl)cc3)C(=O)O[C@]12C` (some centres undefined), the MIC with Staphylococcus aureus stood at 12.5 µg/mL (≈ 16.6 µM); with Streptococcus agalactiae it was 0.02 µg/mL (≈ 0.0265 µM); in the test on Micrococcus luteus, 0.78 µg/mL (≈ 1.04 µM); in test [2] it was 12.5 µg/mL (≈ 16.6 µM); with Enterococcus faecium, 1.56 µg/mL (≈ 2.07 µM).

`CC[C@H]1OC(=O)[C@H](C)[C@@H](OC2C[C@@](C)(OC)[C@@H](O)[C@H](C)O2)[C@H](C)[C@@H](OC2O[C@H](C)C[C@H](N(C)C3CCCC3)[C@H]2O)[C@@](C)(OC)C[C@@H](C)C(=O)[C@H](C)[C@H]2N(CCc3ccc(Cl)cc3)C(=O)O[C@]12C` (some centres undefined): the MIC with Streptococcus equinus stood at 0.78 µg/mL (≈ 0.808 µM); in the test with Staphylococcus aureus, 25 µg/mL (≈ 25.9 µM); with Streptococcus pyogenes, 0.78 µg/mL (≈ 0.808 µM); against Streptococcus agalactiae, 0.78 µg/mL (≈ 0.808 µM); in the test on Micrococcus luteus, 1.56 µg/mL (≈ 1.62 µM); in test [2], 50 µg/mL (≈ 51.8 µM). This compound also showed an MIC with Enterococcus faecium of 1.56 µg/mL (≈ 1.62 µM). Also, the affinity in test [1] corresponds to a Ki of 7.59 nM.

In the case of `CC[C@H]1OC(=O)[C@H](C)[C@@H](O[C@H]2C[C@@](C)(OC)[C@@H](O)[C@H](C)O2)[C@H](C)[C@@H](O[C@@H]2O[C@H](C)C[C@H](N(C)C)[C@H]2O)[C@](C)(O)C[C@@H](C)C(=O)[C@H](C)[C@@H](O)[C@]1(C)O` [ERYTHROMYCIN], the MIC with Streptococcus equinus stood at 0.05 µg/mL (≈ 0.0681 µM); in the test with Staphylococcus aureus it was 0.2 µg/mL (≈ 0.273 µM); with Streptococcus pyogenes, 0.05 µg/mL (≈ 0.0681 µM); against Streptococcus agalactiae, 0.05 µg/mL (≈ 0.0681 µM); with Micrococcus luteus it was 0.02 µg/mL (≈ 0.0273 µM); in test [2], 0.2 µg/mL (≈ 0.273 µM). In the test with Enterococcus faecium, 0.05 µg/mL (≈ 0.0681 µM) was the least that counted as inhibitory (MIC).

Consider `CC[C@H]1OC(=O)[C@H](C)[C@@H](OC2C[C@@](C)(OC)[C@@H](O)[C@H](C)O2)[C@H](C)[C@@H](OC2O[C@H](C)C[C@H](N(C)C(C)C)[C@H]2O)[C@@](C)(OC)C[C@@H](C)C(=O)[C@H](C)[C@H]2N(CCc3ccc(Cl)cc3)C(=O)O[C@]12C` (some centres undefined), for which the MIC with Streptococcus equinus amounted to 0.2 µg/mL (≈ 0.213 µM); with Staphylococcus aureus, 1.56 µg/mL (≈ 1.66 µM); against Streptococcus agalactiae, 0.02 µg/mL (≈ 0.0213 µM); in test [2], 1.56 µg/mL (≈ 1.66 µM); in the test on Enterococcus faecium, 0.2 µg/mL (≈ 0.213 µM).

Turning to `CC[C@H]1OC(=O)[C@H](C)[C@@H](OC(=O)N2C(=O)OC[C@@H]2C)[C@H](C)[C@@H](OC2O[C@H](C)C[C@H](N(C)C(C)C)[C@H]2O)[C@@](C)(OC)C[C@@H](C)C(=O)[C@H](C)[C@H]2N(CCc3ccc(Cl)cc3)C(=O)O[C@]12C` (some centres undefined), the MIC came to 0.1 µg/mL (≈ 0.11 µM) in the test on Streptococcus equinus; 25 µg/mL (≈ 27.5 µM) against Staphylococcus aureus; 0.02 µg/mL (≈ 0.022 µM) against Streptococcus pyogenes; 0.78 µg/mL (≈ 0.859 µM) against Micrococcus luteus; 25 µg/mL (≈ 27.5 µM) in test [2]; 0.78 µg/mL (≈ 0.859 µM) in the test with Enterococcus faecium.

Take `CC[C@H]1OC(=O)[C@H](C)[C@@H](OC2C[C@@](C)(OC)[C@@H](O)[C@H](C)O2)[C@H](C)[C@@H](OC2O[C@H](C)C[C@H](N(C)CC3CC3)[C@H]2O)[C@@](C)(OC)C[C@@H](C)C(=O)[C@H](C)[C@H]2N(CCc3ccc(Cl)cc3)C(=O)O[C@]12C` (some centres undefined): the MIC is above 100 µg/mL with Staphylococcus aureus, 1.56 µg/mL (≈ 1.64 µM) with Streptococcus agalactiae, above 100 µg/mL in test [2] and 1.56 µg/mL (≈ 1.64 µM) against Enterococcus faecium. The Ki in test [1] was 13.2 nM.

On to `CC[C@H]1OC(=O)[C@H](C)[C@@H](OC(=O)N2C(=O)OC[C@@H]2C)[C@H](C)[C@@H](OC2O[C@H](C)C[C@H](N(C)CC3CC3)[C@H]2O)[C@@](C)(OC)C[C@@H](C)C(=O)[C@H](C)[C@H]2N(CCc3ccc(F)c(Cl)c3)C(=O)O[C@]12C` (some centres undefined), for which the MIC against Streptococcus equinus amounted to 0.39 µg/mL (≈ 0.416 µM); with Staphylococcus aureus it was 100 µg/mL (≈ 107 µM); with Streptococcus pyogenes, 0.39 µg/mL (≈ 0.416 µM); against Streptococcus agalactiae it was 0.39 µg/mL (≈ 0.416 µM); in the test on Micrococcus luteus, 1.56 µg/mL (≈ 1.66 µM); in test [2], 50 µg/mL (≈ 53.3 µM). In the test with Enterococcus faecium, this compound registered an MIC of 1.56 µg/mL (≈ 1.66 µM).

Regarding `CC[C@H]1OC(=O)[C@H](C)[C@@H](OC2C[C@@](C)(OC)[C@@H](O)[C@H](C)O2)[C@H](C)[C@@H](OC2O[C@H](C)C[C@H](N(C)C)[C@H]2O)[C@@](C)(OC)C[C@@H](C)C(=O)[C@H](C)[C@H]2N(CCc3ccc(Cl)cc3)C(=O)O[C@]12C` (some centres undefined), the MIC against Streptococcus equinus was found to be 0.2 µg/mL (≈ 0.219 µM); against Staphylococcus aureus, 0.39 µg/mL (≈ 0.428 µM); against Streptococcus agalactiae, 0.2 µg/mL (≈ 0.219 µM); in the test on Micrococcus luteus, 0.05 µg/mL (≈ 0.0549 µM); in test [2], 0.39 µg/mL (≈ 0.428 µM); with Enterococcus faecium, 0.1 µg/mL (≈ 0.11 µM). In test [1], this compound had a Ki of 191 nM.
